Here are results for 18 compounds from patent publication US9371331B2, “Modulators of methyl modifying enzymes, compositions and uses thereof” (Constellation Pharmaceuticals, Inc., priority 2012, dated 2016).

Read-outs that look alike come from different tables or passages of the source. A value given as a limit tells only on which side of the number the result lay.

One test deals with EZH2 (rPRC2) (Homo sapiens, UniProt Q15910). The experiment in a line: EZH2 assay: rPRC2, biotinylated oligonucleosomes, 3H SAM methyl transfer (FlashPlate scintillation). The format is biochemical. The following applies: biotinylated oligonucleosome substrate.
Chain of EZH2 (rPRC2) (Q15910 whole entry): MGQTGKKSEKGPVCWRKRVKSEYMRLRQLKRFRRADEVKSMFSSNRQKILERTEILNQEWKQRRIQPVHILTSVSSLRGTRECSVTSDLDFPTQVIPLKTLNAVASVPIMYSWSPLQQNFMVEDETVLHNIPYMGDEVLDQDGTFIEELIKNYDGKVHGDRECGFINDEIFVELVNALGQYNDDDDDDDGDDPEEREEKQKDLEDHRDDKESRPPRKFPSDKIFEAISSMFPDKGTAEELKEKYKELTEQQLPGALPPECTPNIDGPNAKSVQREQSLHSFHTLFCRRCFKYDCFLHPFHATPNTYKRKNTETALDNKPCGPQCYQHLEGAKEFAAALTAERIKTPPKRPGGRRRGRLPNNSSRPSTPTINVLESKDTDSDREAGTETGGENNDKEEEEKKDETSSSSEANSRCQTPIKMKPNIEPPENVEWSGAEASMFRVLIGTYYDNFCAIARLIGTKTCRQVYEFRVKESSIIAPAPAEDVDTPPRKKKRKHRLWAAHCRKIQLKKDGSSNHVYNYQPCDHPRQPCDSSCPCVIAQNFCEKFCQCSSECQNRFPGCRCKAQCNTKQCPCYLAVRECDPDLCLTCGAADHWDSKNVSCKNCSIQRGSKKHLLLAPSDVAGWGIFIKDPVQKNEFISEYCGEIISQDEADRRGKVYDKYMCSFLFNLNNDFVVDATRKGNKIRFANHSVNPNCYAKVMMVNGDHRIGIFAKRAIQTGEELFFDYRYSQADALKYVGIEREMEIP
Chain of EZH2 (rPRC2) (O75530 whole entry partner): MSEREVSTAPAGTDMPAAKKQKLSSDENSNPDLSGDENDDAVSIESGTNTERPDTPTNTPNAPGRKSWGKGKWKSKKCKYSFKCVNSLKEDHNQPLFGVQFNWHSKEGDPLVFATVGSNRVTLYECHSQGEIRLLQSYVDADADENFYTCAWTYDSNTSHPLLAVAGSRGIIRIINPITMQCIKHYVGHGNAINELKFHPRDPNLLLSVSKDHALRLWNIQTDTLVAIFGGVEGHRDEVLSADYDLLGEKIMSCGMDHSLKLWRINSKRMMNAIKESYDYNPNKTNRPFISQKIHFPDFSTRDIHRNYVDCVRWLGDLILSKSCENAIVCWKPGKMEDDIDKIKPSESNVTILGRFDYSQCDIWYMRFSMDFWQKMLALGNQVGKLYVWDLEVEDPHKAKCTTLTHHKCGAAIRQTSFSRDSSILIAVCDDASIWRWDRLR
Chain of EZH2 (rPRC2) (Q15022 whole entry partner): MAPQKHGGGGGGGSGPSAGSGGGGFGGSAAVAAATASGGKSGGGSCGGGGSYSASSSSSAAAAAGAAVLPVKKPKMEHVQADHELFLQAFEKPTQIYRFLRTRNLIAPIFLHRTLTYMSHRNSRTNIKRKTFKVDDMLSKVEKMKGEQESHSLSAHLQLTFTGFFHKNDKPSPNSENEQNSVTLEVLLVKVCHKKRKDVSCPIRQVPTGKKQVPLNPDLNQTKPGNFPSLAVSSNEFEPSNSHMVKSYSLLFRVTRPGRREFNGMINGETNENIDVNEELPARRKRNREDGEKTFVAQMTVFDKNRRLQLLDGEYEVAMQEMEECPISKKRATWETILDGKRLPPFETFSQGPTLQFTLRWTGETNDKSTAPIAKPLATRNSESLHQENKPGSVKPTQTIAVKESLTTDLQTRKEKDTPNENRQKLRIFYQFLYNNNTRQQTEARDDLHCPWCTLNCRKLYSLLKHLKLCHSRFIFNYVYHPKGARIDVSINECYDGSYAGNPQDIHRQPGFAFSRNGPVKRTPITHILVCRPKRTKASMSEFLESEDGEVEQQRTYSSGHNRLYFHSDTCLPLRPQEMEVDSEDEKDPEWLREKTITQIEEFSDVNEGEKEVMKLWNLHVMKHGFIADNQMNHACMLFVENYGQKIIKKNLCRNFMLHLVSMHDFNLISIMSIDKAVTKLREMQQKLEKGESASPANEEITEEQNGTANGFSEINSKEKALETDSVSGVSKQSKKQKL
In another test the target is Y641N EZH2 (Homo sapiens, UniProt Q15910, Y641N). Briefly: Y641N EZH2 assay: as EZH2 assay, with reconstituted H3K27Me2 oligonucleosomes as substrate. Format: biochemical.
Chain of Y641N EZH2 (Q15910 whole entry Y641N): as the sequence (Q15910 whole entry) above, with Y641N counted along it
Chain of Y641N EZH2 (O75530 whole entry partner): as the sequence (O75530 whole entry partner) above
Chain of Y641N EZH2 (Q15022 whole entry partner): as the sequence (Q15022 whole entry partner) above
In test [1] the test system is H3K27me3 mark in HeLa cells. The experiment in a line: H3K27me3 MSD Hela Assay. The format is cell-based. As to the method:
Trypsinized HeLa cells were counted and diluted in 10% DMEM (Life Technologies, Cat. #10569) to 5000 cells/75 μL. Seventy-five […] of cells were place in each well of a 96-well flat-bottomed plate and incubated at 37° C. for 4 hours. Twenty-five μL of test compound (at various concentrations) was added to the cells and incubation continued at 37° C. for 96 hours. Media was then removed and the cells rinsed once with ice cold PBS. Forty μL of ice-cold MSD Buffer AT (10 mM HEPES, pH 7.9, 5 mM MgCl2, 0.25M sucrose, Benzonase (1:10000), 1% Triton X-100 supplemented with fresh 1× Protease Inhibitor cocktail and 1 mM 4-(2-Aminoethyl)benzenesulfonyl fluoride hydrochloride (AEBSF)) was added to each well and the plates placed on ice for 30 minutes. Ten μL of 5M NaCl was then added to each well and incubation on ice continued for another 15 minutes. The material in each well was suspended pipetting up and down and then transferred to a new 96 well plate. The emptied wells were rinsed with 150 uL ice-cold 20 mM Tris pH 7.5, 1 mM EDTA, 1 mM EGTA, supplemented with fresh 1× Protease Inhibitor cocktail and 1 mM AEBSF (“NO salt NO detergent buffer) and transferred to the respective wells in the new plate. Three hundred μL of NO Salt NO detergent buffer was then added to each well of lysates and the plates frozen at −80° C.
On the same day, an appropriate number of MSD standard bind 96-well plates were coated with 30 μL/well of total H3 capture antibody (Millipore. Cat #MAB3422) at 1 μg/mL concentration in PBS. The antibody solution was evenly distributed first by tapping gently on the sides of the plates and then by shaking the plates for a few minutes at 1000 rpm. Antibody coated plates were stored at 4° C. overnight.
The next day the lysates are thawed to RT. The antibody coated MSD plates are washed 3× with TBS-T (Tris-buffered saline (Fisher Scientific, Cat #BP2471-1)+0.2% Tween-20). One-hundred fifty μL of 5% Blocker A in TBS-T is added to each well. The wells are covered and shaken on a shaker at RT for one hour. The Blocker A step is repeated a second time. After removing the blocker, 25 μL of cell lysate is transferred into each antibody coated well. The plates are shaken for 2 hours at RT, the lysate removed and the plates again washed with Blocker A in TBS-T. Twenty-five μL of appropriate freshly prepared antibody mix (including both primary and secondary antibodies) is added to each well and the plates shaken for 1 hour at RT.
Both H3 antibodies were obtained from Cell Signalling (Cat #s 4499 and 9733). The goat anti-rabbit antibody was obtained from Meso-Scale Discovery (Cat #R32AB-1).
The antibody mix was then removed and the wells washed with Blocker A. One hundred-fifty μL of freshly prepared 1×MSD Read Buffer (Meso-Scale Discovery; Cat #R927C-2) was then added to each well and the plates read on a MSD Sector 2400 Plate Reader.
Data was analyzed using Assay Assistant (Constellation Pharmaceuticals In-house product) and Activity Base (IDBS Ltd, Surrey, UK) template. Data files were imported to Assay Assistant and assay conditions were specified. A unique Analysis ID was created and the data files exported to Activity Base. An analysis template was created on Activity Base to measure dose-dependent inhibition of H3K27me3 mark and cell viability respectively. Readout of DMSO wells were used to normalize the data. Resulting curves were fitted using Activity base software Model 205 (IDBS Ltd. Surrey, UK). The data was checked for quality, validated and integrated in excel format using SARview (IDBS Ltd, Surrey, UK).

Where [2] appears, read: EZH2 IC50, wild-type EZH2 (rPRC2).
[3] abbreviates: Y641N EZH2 IC50, Y641N mutant EZH2, H3K27Me2 oligonucleosome substrate.
Setting [4] is: Homo sapiens, HeLa, 96 h, read-out: H3K27me3_MSD_HeLa_ (EC50).
Setting [5] is: wild-type EZH2 (rPRC2), read-out: EZH2 IC50.
[6] abbreviates: Y641N mutant EZH2, H3K27Me2 oligonucleosome substrate, read-out: Y641N EZH2 IC50.

Usually IC50 stands for the point on the concentration scale where inhibition reaches its midpoint. Usually EC50 stands for the concentration that produces a half-maximal response. In the case of `Cc1cc(C)c(CNC(=O)c2c(C)n(C(C)c3ccccc3)c3ncccc23)c(O)n1` (racemic) [Compound 146, N-((2-hydroxy-4,6-dimethylpyridin-3-yl)methyl)-2-methyl-1-(1-phenylethyl)-1H-pyrrolo[2,3-b]pyridine-3-carboxamide], the IC50 was less than 100 nM against EZH2 (rPRC2) (setting [2]) and 100 to 1000 nM on Y641N EZH2 (setting [3]). For the same compound, the EC50 in test [1] (setting [4]) lay within 400 to 2000 nM.
For the compound `Cc1cc(C)c(CNC(=O)c2c(C)n(C(C)c3ccc(F)cc3)c3ccccc23)c(=O)[nH]1` (racemic) [Compound 166, (±)-N-((4,6-dimethyl-2-oxo-1,2-dihydropyridin-3-yl)methyl)-1-(1-(4-fluorophenyl)ethyl)-2-methyl-1H-indole-3-carboxamide], the half-inhibitory concentration (IC50) is less than 100 nM against EZH2 (rPRC2) (setting [2]) and 100 to 1000 nM against Y641N EZH2 (setting [3]). Moreover, the EC50 in test [1] (setting [4]) was in the range of 2000 to 10000 nM.
For `Cc1cc(C)c(CNC(=O)c2c(C)n(C(C)c3ccc(Cl)cc3)c3ccccc23)c(=O)[nH]1` (racemic) [Compound 170, (±)-1-(1-(4-chlorophenyl)ethyl)-N-((2-hydroxy-4,6-dimethylpyridin-3-yl)methyl)-2-methyl-1H-indole-3-carboxamide], the IC50 was less than 100 nM at EZH2 (rPRC2) (setting [2]) and 100 to 1000 nM against Y641N EZH2 (setting [3]). In addition, the EC50 in test [1] (setting [4]) lay within 2000 to 10000 nM.
Consider `Cc1cc(C)c(CNC(=O)c2c(C)n(C(C)c3ccccc3)c3ccccc23)c(O)n1` (single isomer, unassigned) [Compound 137, (R or S)—N-((2-hydroxy-4,6-dimethylpyridin-3-yl)methyl) 2-methyl-1-1-phenylethyl) 1H-indole-3-carboxamide], for which the 50% effective concentration (EC50) in test [1] (HeLa cells, MSD, 96 hours; read-out: H3K27me3_MSD_HeLa_ (EC50)) is 400 to 2000 nM.
Turning to `CCC(C)n1c(C)c(C(=O)NCc2c(C)cc(C)nc2O)c2ccccc21` (single isomer, unassigned) [Compound 147, (R or S)-1-sec-butyl-N-((2-hydroxy-4,6-dimethylpyridin-3-yl)methyl)-2-methyl-1H-indole-3-carboxamide], in test [1] (setting [4]), the EC50 fell in the range of 400 to 2000 nM.
`COc1cc(C)[nH]c(=O)c1CNC(=O)c1c(C)n(C(C)c2ccccc2)c2cnccc12` (single isomer, unassigned) [Compound 259, (R or S)-N-((4-methoxy-6-methyl-2-oxo-1,2-dihydropyridin-3-yl)rnethyl)-2-methyl-1-(1-phenylethyl)-1H-pyrrolo[2,3-c]pyridine-3-carboxamide]: the 50% inhibitory concentration (IC50) at EZH2 (rPRC2) (read-out: EZH2 IC50, wild-type EZH2 (rPRC2)) was less than 100 nM. The EC50 in test [1] (read-out: H3K27me3_MSD_HeLa_ (EC50); HeLa cells, MSD, 96 hours) is 400 to 2000 nM.
As to `COCC(C)n1c(C)c(C(=O)NCc2c(C)cc(C)[nH]c2=O)c2ccccc21` (single isomer, unassigned; peak 2) [Compound 218, (R or S)-N-((4,6-dimethyl-2-oxo-1,2-dihydropyridin-3-yl)methyl)-1-(1-methoxypropan-2-yl)-2-methyl-1H-indole-3-carboxamide-PEAK 2], in test [1] (setting [4]), the half-maximal effective concentration (EC50) is less than 400 nM.
With `CCC(C)n1c(C)c(C(=O)NCc2c(C)cc(C)nc2O)c2ccccc21` (centres unmarked) [Compound 123, 1-sec-butyl-N-((2-hydroxy-4,6-dimethylpyridin-3-yl)methyl)-2-methyl-1H-indole-3-carboxamide], in test [1] (setting [4]), the EC50 lay within 400 to 2000 nM.
`COc1cc(C)[nH]c(=O)c1CNC(=O)c1c(C)n(C(C)C(OC)C(F)(F)F)c2ncccc12` (centres unmarked) [Compound 312, N-((4-methoxy-6-methyl-2-oxo-1,2-dihydropyridin-3-yl)methyl)-2-methyl-1-(4,4,4-trifluoro-3-methoxybutan-2-yl)-1H-pyrrolo [2,3-b] pyridine-3-carboxamide]: the concentration for half-maximal inhibition (IC50) on EZH2 (rPRC2) (setting [2]) and at Y641N EZH2 (setting [3]) was 100 to 1000 nM throughout.
As to `COC(C)C(C)n1c(C)c(C(=O)NCc2c(C)cc(C)[nH]c2=O)c2ccc(S(C)(=O)=O)cc21` (centres unmarked) [Compound 322, N-((4,6-dimethyl-2-oxo-1,2-dihydropyridin-3-yl)methyl)-1-(3-methoxybutan-2-yl)-2-methyl-6-(methylsulfonyl)-1H-indole-3-carboxamide], the IC50 against EZH2 (rPRC2) (setting [2]) and against Y641N EZH2 (setting [3]) was 100 to 1000 nM throughout.
Regarding `COc1cc(C)[nH]c(=O)c1CNC(=O)c1c(C)n(C(C)C(C)OC)c2cc(S(C)(=O)=O)ccc12` (centres unmarked) [Compound 323, N-((4-methoxy-6-methyl-2-oxo-1,2-dihydropyridin-3-yl)methyl)-1-(3-methoxybutan-2-yl)-2-methyl-6-(methylsulfonyl)-1H-indole-3-carboxamide], the half-inhibitory concentration (IC50) against EZH2 (rPRC2) (setting [2]) is less than 100 nM; on Y641N EZH2 (setting [3]), 100 to 1000 nM.
Regarding `COc1cc(C)[nH]c(=O)c1CNC(=O)c1c(C)n(C(=O)CC(C)C)c2ccccc12` [Compound 329, N-((4-methoxy-6-methyl-2-oxo-1,2-dihydropyridin-3-yl)methyl)-2-methyl-1-(3-methylbutanoyl)-1H-indole-3-carboxamide], the half-maximal inhibitory concentration (IC50) at EZH2 (rPRC2) (setting [5]) and at Y641N EZH2 (setting [6]) was 100 to 1000 nM in each case.
`COc1cc(C)[nH]c(=O)c1CNC(=O)c1c(C)n(C2CCN(C(=O)OC(C)(C)C)CC2)c2ccccc12` [Compound 331, tert-butyl 4-(3-(((4-methoxy-6-methyl-2-oxo-1,2-dihydropyridin-3-yl)methyl)carbamoyl)-2-methyl-1H-indol-1-yl)piperidine-1-carboxylate]: the 50% inhibitory concentration (IC50) was less than 100 nM at EZH2 (rPRC2) (setting [2]) and 100 to 1000 nM at Y641N EZH2 (setting [3]).
For `COc1cc(C)[nH]c(=O)c1CNC(=O)c1c(C)n(C(C)C2COCCO2)c2ccccc12` (centres unmarked) [Compound 348, 1-(1-(1,4-dioxan-2-yl)ethyl)-N-((4-methoxy-6-methyl-2-oxo-1,2-dihydropyridin-3-yl)methyl)-2-methyl-1H-indole-3-carboxamide], the half-maximal inhibitory concentration (IC50) against EZH2 (rPRC2) (setting [2]) and at Y641N EZH2 (setting [3]) was less than 100 nM in each case.
Turning to `COc1cc(C)[nH]c(=O)c1CNC(=O)c1c(C)n(C(C)C(C)S(C)(=O)=O)c2ccccc12` (centres unmarked) [Compound 350, N-((4-methoxy-6-methyl-2-oxo-1,2-dihydropyridin-3-yl)methyl)-2-methyl-1-(3-(methylsulfonyl)butan-2-yl)-1H-indole-3-carboxamide], the half-maximal inhibitory concentration (IC50) against EZH2 (rPRC2) (setting [2]) and against Y641N EZH2 (setting [3]) was less than 100 nM throughout.
Consider `COc1cc(C)[nH]c(=O)c1CNC(=O)c1c(C)n(C(C)[C@H]2CNCCO2)c2ncncc12` (stereo partly drawn) [Compound 351, N-((4-methoxy-6-methyl-2-oxo-1,2-dihydropyridin-3-yl)methyl)-6-methyl-7-(1-((R)-morpholin-2-yl)ethyl)-7H-pyrrolo[2,3-d]pyrimidine-5-carboxamide], for which the IC50 was less than 100 nM on EZH2 (rPRC2) (setting [2]) and 100 to 1000 nM against Y641N EZH2 (setting [3]).
For the compound `COc1cc(C)[nH]c(=O)c1CNC(=O)c1c(C)n(C(=O)C2CCOCC2)c2ccccc12` [Compound 372, N-((4-methoxy-6-methyl-2-oxo-1,2-dihydropyridin-3-yl)methyl)-2-methyl-1-(tetrahydro-2H-pyran-4-carbonyl)-1H-indole-3-carboxamide], the IC50 on EZH2 (rPRC2) (setting [5]) was in the range of 100 to 1000 nM. The “Y641N EZH2 IC50” value at Y641N EZH2 (Y641N mutant EZH2, H3K27Me2 oligonucleosome substrate) was “*(0.5 uM)”.
Take “(±)-N-((6-(hydroxymethyl)-4-methoxy-2-oxo-1,2-dihydropyridin-3-yl)methyl)-1-(1-methoxypropan-2-yl)-2-methyl-1H-pyrrolo[2,3-b]pyridine-3-carboxamide [Compound 262]”: the IC50 on EZH2 (rPRC2) (setting [5]) fell in the range of 100 to 1000 nM; on Y641N EZH2 (setting [6]), 1000 to 10000 nM.
